Assay [1] concerns E. coli DH5α (Null Plasmid). The assay can be described thus: MIC by micro-dilution, null plasmid control strain. Format: cell-based. To be noted: Escherichia coli, read-out: MIC DH5α(Null Plasmid).
In assay [2] the target is T1, CTX-M-15 (Escherichia coli, UniProt Q9EXV5). To be noted: for K m or K i: K m for good substrates, for poor substrates (ceftazidime, cefepime, aztreonam) determined as K i against 100 µM nitrocefin; for k cat: 50 mM phosphate buffer pH 7.0, 30°C. The procedure:
The inhibitors used were Clavulanic acid, Sulabctam, Tazobactam and ZINC03787097.
Hydrolysis of β-lactam antibiotics was detected by monitoring the variation in the absorbance due to cleavage of β-lactam ring in 50 mM phosphate buffer, pH 7.0 [28]. All the measurements were taken in triplicate on Shimadzu UV-VIS spectrophotometer (UV-1800). The reaction was performed in a total volume of 500 µl at 30°C. For dilution of the enzyme and to prevent denaturation, BSA was added to a final concentration of 20 µg/ml.

Assay [3] has as its system E. coli DH5α transformed with recombinant bla CTX-M-15 (pQE-2-CTX-M-15). The assay can be described thus: MIC by micro-dilution, β-lactams alone or with inhibitors. Format: cell-based. To be noted: for MIC: Escherichia coli, read-out: MIC DH5α(pQE-2-CTX-M-15), E. coli DH5α with bla CTX-M-15 cloned from E. cloacae EC-15; for MIC / MIC DH5α(pQE-2-CTX-M-15): in combinations clavulanic acid, sulbactam, tazobactam at 4 µg/ml, ZINC03787097 at 20 µg/ml; for fold lowering of MIC of cefotaxime in combination with inhibitor: DH5α transformed with bla CTX-M-15; for MIC DH5α(pQE-2-CTX-M-15): E. coli DH5α with bla CTX-M-15 cloned from E. cloacae EC-15. How it is done: E. coli DH5α and E. coli BL21 (DE3) were used for cloning and protein expression experiments, respectively. MICs were determined on E. coli DH5α transformed with cloned CTX-M-15 from Enterobacter cloacae clinical strain EC-15.
The MICs for various antibiotics alone or in combination with various inhibitors (clavulanic acid, sulbactam, tazobactam and ZINC03787097) were determined by micro-dilution method and the results were interpreted according to Clinical Laboratory Standards Institute (CLSI) guidelines. Briefly, E. coli DH5α cells transformed with CTX-M-15 was treated with increasing concentrations of the antibiotics ranging from 0.5 to 2000 µg/ml in a series of two fold dilutions. The inhibitors clavulanic acid, sulbactam and tazobactam were used at a fixed concentration of 4 µg/ml, while ZINC03787097 was used at 20 µg/ml.

Assay [4] concerns the target T1, CTX-M-15. The assay can be described thus: Enzyme inhibition kinetics (acylation/deacylation, competition with nitrocefin). The conditions noted are these: for K′: dissociation constant of the Henri-Michaelis complex; for k +2 x 10^−2: first-order acylation constant, values x 10^−2.
Text: The parameters k +2, k +3 and K′ are the first-order acylation and deacylation constants, and the dissociation constant of the Henri-Michaelis complex, respectively.
where, v o, v t and v ss are the rates of utilization of the reporter substrate at times 0 and t, and after the steady-state has been established, respectively.
The individual parameters, k +2, k +3 and K′, were derived from the dependence of k i upon inhibitor concentration, [C], on the basis of the following equation: [drawing 10]
When the concentration of inhibitor [C] is well below K′, k i varies linearly the above equations is simplified as: [drawing 11]
The k +2/K′ value is then obtained from the slope of the line, whereas k +3 is given by the intercept at [C] = 0. Conversely, if [C] is much larger than K′ (K m+[S])/K m, then k i = k +2+k +3, and is independent of [C]
The target of assay [5] is T1, CTX-M-15. The experiment in a line: IC50 determination, nitrocefin hydrolysis after 5 min pre-incubation. Format: biochemical, Enterobacter cloacae. The arrangement: His tag (inferred from the pQE-2 vector and Ni-NTA purification); made in house; host or cells: E. coli BL21 (DE3). To be noted: IC50, 5 min pre-incubation at 30°C; 100 µM nitrocefin. How it is done:
The 50% inhibitory concentration (IC50) was determined as the concentration of the inhibitor that inhibited hydrolytic activity of the enzyme by 50%.

For assay [6], the target named is T1, CTX-M-15. Format: biochemical, Enterobacter cloacae. Also on record: His tag (inferred from the pQE-2 vector and Ni-NTA purification); made in house; host or cells: E. coli BL21 (DE3). To be noted: 0.00 µM ZINC03787097; 0.50 nM CTX-M-15.
The mark [7] stands for this setting: in combinations clavulanic acid, sulbactam, tazobactam at 4 µg/ml, ZINC03787097 at 20 µg/ml.
Setting [8] is: K i calculated as K i = k +3 K/k +2, calculated value.
Where [9] appears, read: K i, determined at steady-state, competition with 100 µM nitrocefin.

pIC50, pKi: −log10 of the molar value. Values after ≈ are worked out from the molar mass of the structure shown. Read-outs that look alike come from different tables or passages of the source.

The term MIC denotes the least concentration at which growth counts as inhibited. Usually pKi stands for the Ki on a negative log10 scale, so that one unit is a factor of ten. In general, pIC50 refers to the negative decadic logarithm of the IC50, by convention in mol/L. Lower therefore signals a high IC50.

As for `CC1(C)S[C@@H]2[C@H](NC(=O)[C@H](N)c3ccccc3)C(=O)N2[C@H]1C(=O)O` [Ampicillin], in assay [1] (setting [7]), the MIC turned out to be 2 µg/mL. On CTX-M-15 [2], the “K m or K i” value amounted to 15 ± 2 µM.

Consider `C[C@H]1[C@H](NC(=O)/C(=N\OC(C)(C)C(=O)O)c2csc(N)n2)C(=O)N1S(=O)(=O)O` [Aztreonam], for which the MIC in assay [3] stood at 16 µg/mL; in assay [1] it was 0.25 µg/mL (≈ 0.574 µM).

On to `CC(C)(O/N=C(\C(=O)N[C@@H]1C(=O)N2C(C(=O)[O-])=C(C[n+]3ccccc3)CS[C@H]12)c1csc(N)n1)C(=O)O` [Ceftazidime], for which the figures for the MIC in assay [3] and in assay [1] (setting [7]) were 4 µg/mL and 0.25 µg/mL, respectively. The compound further returned a k cat at CTX-M-15 [2] of 1.51 s⁻¹. Moreover, the “K m or K i” value is 1209 µM at CTX-M-15 [2] and 1209 ± 91 µM at CTX-M-15 [2] (listed as Ceftazidime (III)).

In the case of `O=C(O)[C@H]1/C(=C/CO)O[C@@H]2CC(=O)N21` [Clavulanic acid], the “fold lowering of MIC of cefotaxime in combination with inhibitor” value (“fold lowering of MIC … with inhibitor” for short) in assay [3] was found to be 16 fold. The pKi at CTX-M-15 [4] (setting [8]) was 6.97. On CTX-M-15 [4] (setting [9]), this compound had a pKi of 7.00. At CTX-M-15 [4], the “K′” value is 0.72 µM and the “k +2 x 10^−2” value was 1.3 s^−1. Further, at CTX-M-15 [5], the pIC50 was 7.85.

For the compound `CO/N=C(\C(=O)N[C@@H]1C(=O)N2C(C(=O)O)=C(COC(C)=O)CS[C@H]12)c1csc(N)n1` [Cefotaxime], the “MIC DH5α(pQE-2-CTX-M-15)” value in assay [3] (listed as Cefotaxime (III)) came out at 512 µg/ml. The figures for the minimal inhibitory concentration (MIC) in assay [3] and in assay [1] (setting [7]) were 500 to 1000 µg/mL and 0.25 µg/mL, respectively. In addition, the “K m or K i” value on CTX-M-15 [2] is 60 ± 3 µM.

Take `CO/N=C(\C(=O)N[C@@H]1C(=O)N2C(C(=O)O)=C(CSc3nc(=O)c(=O)[nH]n3C)CS[C@H]12)c1csc(N)n1` [Ceftriaxone]: the minimum inhibitory concentration (MIC) in assay [1] (setting [7]) came to 0.06 µg/mL. The “K m or K i” value at CTX-M-15 [2] came to 33 ± 2 µM.

Consider `CO/N=C(\C(=O)N[C@@H]1C(=O)N2C(C(=O)O)=C(COC(N)=O)CS[C@H]12)c1ccco1` [Cefuroxime], for which, in assay [1] (setting [7]), the MIC was 1 µg/mL. In addition, at CTX-M-15 [2], the “K m or K i” value stood at 29 ± 2 µM.

Turning to `Cc1nnc(SCC2=C(C(=O)O)N3C(=O)[C@@H](NC(=O)Cn4cnnn4)[C@H]3SC2)s1` [Cefazolin], the MIC in assay [1] was found to be 2 µg/mL (≈ 4.4 µM).

In the case of `C[C@]1(Cn2ccnn2)[C@H](C(=O)O)N2C(=O)C[C@H]2S1(=O)=O` [Tazobactam], in assay [3], the “fold lowering of MIC … with inhibitor” value is on record as 8 fold. In addition, the “fold reduction of MICs of β-lactam antibiotics” value in assay [3] (inhibitor in combination with β-lactam antibiotics) is reported as 2–16 folds. Also, the pKi on CTX-M-15 [4] (setting [8]) is 7.89. The compound further had a pKi on CTX-M-15 [4] (setting [9]) of 7.77. For the same compound, at CTX-M-15 [4], the “K′” value amounted to 0.03 µM and the “k +2 x 10^−2” value came out at 1.3 s^−1. In addition, on CTX-M-15 [5], the pIC50 was 9.00.

For the compound `CO/N=C(\C(=O)N[C@@H]1C(=O)N2C(C(=O)[O-])=C(C[N+]3(C)CCCC3)CS[C@H]12)c1csc(N)n1` [Cefepime], in assay [3] (listed as Cefepime (IV)), the “MIC DH5α(pQE-2-CTX-M-15)” value is given as 128 µg/ml. The minimal inhibitory concentration (MIC) in assay [3] is 125 µg/mL; in assay [1] it was 0.25 µg/mL (≈ 0.52 µM).

Take `CO[C@@]1(NC(=O)Cc2cccs2)C(=O)N2C(C(=O)O)=C(COC(N)=O)CS[C@@H]21` [Cefoxitin]: the MIC in assay [3] was 16 µg/mL; in assay [1] (setting [7]), 2 µg/mL.

Take `CCN1CCN(C(=O)N[C@@H](C(=O)N[C@@H]2C(=O)N3[C@@H]2SC(C)(C)[C@@H]3C(=O)O)c2ccccc2)C(=O)C1=O` [Piperacillin]: in assay [1] (setting [7]), the MIC stood at 1 µg/mL. Moreover, the “K m or K i” value on CTX-M-15 [2] was 32 ± 5 µM.

Take `CC1(C)[C@H](C(=O)O)N2C(=O)C[C@H]2S1(=O)=O` [Sulbactam]: in assay [3], the “fold lowering of MIC … with inhibitor” value is listed as 2 fold. Besides, the negative logarithm of the Ki (pKi) on CTX-M-15 [4] (setting [8]) is 6.88; on CTX-M-15 [4] (setting [9]), 7.21. Moreover, the “K′” value on CTX-M-15 [4] is 0.55 µM. Also, at CTX-M-15 [4], the “k +2 x 10^−2” value is on record as 1.6 s^−1. The pIC50 on CTX-M-15 [5] is 6.67.

On to `O=C(Cc1cccs1)N[C@@H]1C(=O)N2C(C(=O)O)=C(/C=C/c3ccc([N+](=O)[O-])cc3[N+](=O)[O-])CS[C@H]12` [Nitrocefin], for which, at CTX-M-15 [2], the k cat is 582 s⁻¹ and the “K m or K i” value was found to be 35 ± 4 µM. In addition, the “K m for nitrocefin hydrolysis” value at CTX-M-15 [6] worked out at 42 µM.

Values taken from publication PMC3578935, “Biochemical Characterization of CTX-M-15 from Enterobacter cloacae and Designing a Novel Non-β-Lactam-β-Lactamase Inhibitor” (PLoS ONE, 2013).
